Several values for one entry are separate records, joined by “and”; a condition that tells them apart may be missing. Equal values may be shown once. Positions of bridges follow the written chain, without caps; N, C: chain ends. Residues, ends and D or L forms follow the SMILES beside them. No end group written: not given here. *: point of attachment. Biotin = O=C1N[C@H]2[C@H](CS[C@H]2CCCCC(=O)*)N1
Assays:
[1] = tested on: ex vivo instilled rat lung; experiment: Ex vivo rat flooded lung, model of hydrostatic edema; conditions: for activity in fluid clearance / clearing alveolar fluid content ex vivo: summary in words; for clearing alveolar fluid content ex vivo: after intratracheal instillation
Protocol: In this model edema is induced by instillating 2 ml of 0.9% NaCl solution intratracheally. Alternatively, edema formation can be modulated by varying the height of the venous outflow and the perfusion buffer containing reservoir, or alternatively by varying the time the lung is exposed to the elevated pressure. […] The clearance of alveolar fluid from the lung is calculated by means of measuring the concentration of HSA, which is added to the instillate over time. Alternatively, the over time weight loss as a measure of edema resorption (high weight loss is high liquid clearance), of the artificially instilled lung can be measured. The lung tidal volume, compliance and weight are monitored continuously during the experiment. At the end of the experiment bronchoalveolar fluid and supernatant of lung homogenate is taken for measurement of inflammatory mediators.
The lungs of female Wistar rats (weight 200–250 g; Harlan-Winkelmann, Borchen, Germany) are prepared after terminal i.p. anesthesia by 160 mg/kg pentobarbitural —Na (Merial Ltd, Halbermoos, Germany) and perfused as described by Uhlig and Wolin (1994), and by Uhlig and von Bethmann (1997). All equipment is obtained from Hugo Sachs Electronics (March-Hugstetten, Germany). […] As perfusion medium, a Krebs-Henseleit buffer (38° C.) containing 2% bovine serum albumin (Fraction V, Scrva. Heidelberg, Germany), 0.1% glucose (Riedel-de-Haën Inc., Seelze, Germany), and 0.3% HEPES (ICN Biomedicals Inc., Ohio, USA) is used. The total amount of recirculating buffer is 100 ml. The lungs are suspended by the trachea and ventilated by negative pressure ventilation (inspiratory pressure: −7 cm H2O, expiratory pressure: −2 cm H2O) with 80 breaths per minute resulting in a tidal volume of approximately 2 ml. Every 5 minutes, a deep inspiratory breath (−20 cm H2O) is performed. Artificial thorax chamber pressure is measured with a differential pressure transducer (Validyne DP 45-14), and an air flow velocity with a pneumotachograh tube (Fleisch Type 0000) connected to a differential pressure transducer (Validyne DP 45-15). The perfusate flow (Narcomatic RT-500) and the arterial and venous pressure (Statham P23BB) are continuously monitored. The pH of the perfusate before entering the lung is kept at 7.25 to 7.35 by automatic bubbling of the buffer with CO2 as soon as the pH exceeds this range. A weight transducer is integrated into the chamber lid which allows the continuous assessment of lung weight. Data are recorded on a Pentium II computer using the Mathlab Sofware package (Mathworks, Inc., Nattick Mass., USA). For lung mechanics, the data are analyzed by applying the following formula: P=1/C*VT+RLdV/dT
Where P is chamber pressure, C pulmonary compliance, VT tidal volume, and RL airway resistance. All lung physiology parameters were normalized to time point 0, i.e. after the end of the preconditioning perfusion of 40 minutes.

isolated rat lungs = experiment: Isolated blood perfused flooded rat lung (weight, lung mechanics, PV curves, histology); conditions: pretreated lungs after flooding and 2 hours reperfusion
Protocol: Rats. For the ex vivo experiments, 31 Sprague-Dawley rats (300 to 350 g) were tracheotomized and mechanically ventilated (40% oxygen in air) under isoflurane anesthesia. The experimental protocol was reviewed and approved by the Ethics Committee for Animal Research and by the Veterinary Office of our institution. The femoral vessels were cannulated for blood sampling, fluid replacement, and continuous arterial blood pressure monitoring. Following anticoagulation (1.5 IU/g i.v. heparin), 20 ml of blood were withdrawn and replaced by an equal volume of dextran-40 (Macrodex 10% in normosaline) to serve as priming volume for the isolated perfusion circuit. The heart-lung block was prepared as described by Ma et al., 2000, weighed and assigned to one of four groups. […] The lungs were suspended, mechanically ventilated, and perfused at constant pressure with autologous blood as described by Ma et al., 2000.
An inspiratory and expiratory quasi-static pressure-volume (PV) curve was performed at the end of the 2-hour reperfusion period by inflating and then deflating the lungs at a constant rate (0.3 ml/sec) using an automated infusion pump. A sigh was applied in all groups every 15 minutes to minimize atelectasis formation. The blood pH was maintained between 7.3 and 7.5 and, if necessary, corrected with sodium bicarbonate 8.4% or a change of the inspired CO2 as required by the blood gas analysis. Every 30 minutes, a blood sample was collected for blood gas analysis as well as for hematocrit and electrolyte concentration.
Inclusion criteria. Immediately following the start of reperfusion, the preparation had to fulfill three technical inclusion criteria: • 1) left atrial pressure (LAP) 5-10 mmHg; • 2) peak airway pressure (AWP) <15 cmH2O; and • 3) pulmonary blood flow (PBF) >10 ml/min. […] The included lungs were then flooded with gentle intratracheal instillation of 2 ml normal saline and the recorded variables measured for 2 subsequent hours.
Histological analysis. Random lung samples were fixed for light and electron microscopy and analyzed by pathologists blinded to the lung's protocol group assignment.

[2] = tested on: lung microvascular endothelial cells; experiment: Whole-cell patch clamp, membrane conductance in lung microvascular endothelial cells; assay type: cell-based, mouse; conditions: 30 min preincubation at acidic pH (pH 6); TNF, mutTNF 100 ng/ml, peptides 100 μg/ml
From the text: Animals, cells and reagents. Male CBA/J or C57BL/6 mice, as well as male TNFR ½^0/0 C57BL/6 mice deficient in TNF receptors (Bruce et al., 1996) provided by H. Bluethmann, F. Hoffmann-La Roche, Basel, Switzerland, were used at the age of 8–10 weeks. Their care was in accordance with institutional guidelines. Lung microvascular endothelial cells were isolated from CBA/J mice and characterized as described (Jackson et al., 1990) using magnetic beads (Dynabeads M-450, Dynal, Oslo, Norway), covalently bound to a purified rat-anti-mouse PECAM-1 monoclonal antibody (donated by B. Imhof, University of Geneva). Microvascular lung endothelial cells were resuspended in DMEM containing 2 mM L-glutamine, 100 U/ml penicillin, […], 20% FCS, 40 U/ml heparin and […] endothelial cell growth supplement (Brunschwig Chemie, Basel, Switzerland). For patch clamp experiments, cells were plated onto 35×10 mm easy grip Petri dishes (Beckton Dickinson, Plymouth, UK), pre-coated with 0.2% gelatin (Sigma, Buchs, Switzerland). Resident peritoneal macrophages, isolated in ice cold RPMI containing antibiotics and 10 U/ml Heparin, were left to adhere onto 35×10 mm easy grip Petri dishes for 4 h, after which the non-adherent cells were removed. Cells were grown in RPMI 1640 containing 2 mM L-glutamine, 100 U/ml penicillin, 10 μpg/ml streptomycin and 10% fetal bovine serum (all from Gibco). For patch clamp, the macrophages ware used 24 h after isolation.
Electrophysiology. Cells were pretreated for 30 min with TNF, mutTNF and tip peptides at 37° C. in a buffer consisting of 145 mM NaCl, 3 mM KCl, 2mM CaCl2, 2mM MgCl2, 10 mM D-glucose, and 10mM Hepes, and pH-adjusted with NaOH to required value. Cells were then washed with the same buffer pH-adjusted at 7.3, and experiments were performed using the tight-seal, whole-cell recording technique. Currents were recorded with an Axopatch-200A amplifier (Axon Instrument Inc, Foster City, Calif., USA), low pass-filtered at 1 kHz. Digitalization and off-line analysis was performed using the WCP program (J. Dempster, Strathclyde Electrophysiology Software, Glasgow, UK). Patch pipettes were pulled from borosilicate glass and fire polished to have an open resistance of 3–5 MW with an internal solution containing […], 2 mM MgCl2, 10mM EGTA, 20 mM TEA-Cl, 10 mM D-glucose 10 mM Hepes, pH-adjusted to 7.3 with CsOH. Series resistances were kept under 10 MW. Capacitance and series resistance compensation were applied and set to 70%. All experiments were done at room temperature. Results are given as mean ±SEM, unless otherwise indicated. Analysis of variance was performed on currents and membrane conductance values, with post-hoc Dunn-Bonferroni test for significance of differences observed between two groups. A P value of 0.05 was considered significant.

[3] = tested on: left lung of Fischer (F344) rats; experiment: Rat model of lung reperfusion injury (warm ischemia and reperfusion); assay type: in vivo
Protocol: In a modification of the model of Ohno et al. (1993) male Fischer (F344) rats (200–250 g) undergo clamping of the left pulmonary artery, pulmonary vein and main bronchus for 36 minutes of warm ischemia. After reperfusion of the left lung, the right lung is occluded to assess the function of the left lung for 90 minutes. The peptide is given at 3 minutes after reperfusion by either instillation or intravenous injection via the subclavian vein.
• 1. Anaesthesia of the rat in a glass chamber, 4% Halothane and Oxygen 4/min. • 2. Intubation of the rat with a 1.8 mm catheter, • 3. Shaving the fur on the abdomen and left side of the animal. • 4. Ventilation via the tracheal tube 100/min, 2.5 ml 20% oxygen, Harvard Rodent Ventilator (Harvard Apparatus, South Natick, Mass.), PEEP 5 mm H2O. • 5. A left thoracotomy is carried out in the in 4th intercostal space. • 6. Dissection of the left lung hilar region. • 7. Microvascular clips are placed around the left pulmonary artery (PA), Pulmonary vein (PV) and left main bronchus (B) to induce warm ischemia of the left lung. Small circulation is still ongoing through the right lung. This is the start of the Warm Ischemia Time (WIT). • 8. Anaesthaesia is maintained with 2% Halothane, 40% Oxygen. • 9. A provisory Z suture is made to temporary close the thoracotomy and a gaze sponge is put on the animal to decrease warmth loss. • 10. Near the end of the WIT, a thoracophrenolaparatomy in the midline with thorough electrocaterisation. (two peans on the sternum). • 11. Putting 2-0 Softsilk on the trachea around the intubation tube. • 12. Dissection of the right hilar elements. • 13. Taking away microvascular clips from the left hilar elements. End of WIT of the left lung after 36 minutes. • 14. Putting microvascular clips on right PA and B. Small circulation only through left lung. Start developing of left oedema time (LLOT). • 15. After 3 minutes of LLOT: instillation of the drug in 0.5 ml of 0.9% saline solution (Baxter) or injection of the drug in 0.25–0.3 ml of 0.9% saline through the subclavian vein. • 16. After 6, 30, 60 and 90 minutes of LLOT, puncture of the Aortic Arch (AA) with needle for blood gas analysis in Radiometer ABL 700 Serie, (Denmark). • 17. After each puncture the AA puncture hole is pressed with a cotton swab. • 18. Blood gas analysis is taken every time from AA (the heart rate should be over 60). • 19. After the last blood gas analysis (90 minutes), both lungs are flushed via the PA with 20 ml of 0.9% saline at a pressure of 20 cm H2O. […] The heart-lung block is excised for storage under formaline or in the freezer awaiting immunohistopathological analysis. Alternatively, the lung can be excised without flushing to assess wet to dry ratio's. Results (FIG. 7)

[4] = measured 80 minutes after instillation

Compound: CGQRETPEGAEAKPWY (Biotin-CGQRETPEGAEAKPWY) [linear hum Ltip]
- activity in fluid clearance [1, 4]: equally active
- activity in fluid clearance ([1]; measuring for 100 minutes after instillation): less active
- Weight loss of ex vivo instilled rat lung over 80 min ([1]; synthetic peptide 1000 μg/lung): 498 mg and 863 mg and 585 mg and 462 mg

Compound: CC(C)C[C@@H]1NC(=O)[C@H](CCC(=O)O)NC(=O)[C@H](Cc2c[nH]c3ccccc23)NC(=O)[C@@H]2CCCN2C(=O)[C@H](CCCCN)NC(=O)[C@H]([C@@H](C)O)NC(=O)CNC(=O)[C@@H](N)CSSC[C@@H](C(=O)O)NC(=O)[C@H](Cc2ccc(O)cc2)NC(=O)[C@H](C)NC(=O)[C@@H]2CCCN2C(=O)[C@H](CCCCN)NC(=O)[C@H](CCC(=O)O)NC(=O)[C@H](CC(=O)O)NC(=O)[C@@H]2CCCN2C(=O)CNC1=O [cyclic mu scrambl Tip, reference compound] (H-CGTKPWELGPDEKPAYC-OH; disulfide 1-17)
- endothelial flaps and epithelial blebs (electron microscopy) (isolated rat lungs): less evident

Compound: GG-COTKPWELOPDEKPAYC [scramblTip, reference compound]
- whole cell current / membrane conductance [2]: inactive

Compound: CGQREAPAGAAAKPWYC (disulfide 1-17) [hum mut Tip, reference compound]
- clearing alveolar fluid content ex vivo [1]: inactive
- pO2 blood gas levels ([3]; 6 to 90 minutes of LLOT, cyclic hum Ltip 500 μg/kg to 5 μg/kg, hum mut Tip 500 μg/kg): followed completely the values seen in the control animals
- gain in pO2 blood gas ([3]; iv application): no effect

Compound: GG-CCIPKDAPAGAALKPWYC [mutTip, reference compound]
- whole cell current / membrane conductance [2]: inactive

Compound: CC(C)(C)NCC(O)c1cc(O)cc(O)c1 (centres unmarked) [Terbutaline, reference compound]
- Weight loss of ex vivo instilled rat lung over 80 min ([1]; Terbutalin 1 mM alone, individual lungs): 1035 mg and 872 mg and 1219 mg and 1119 mg and 822 mg and 1075 mg and 675 mg and 730 mg and 1000 mg and 923 mg and 880 mg and 702 mg
- Weight loss of ex vivo instilled rat lung over 100 min ([1]; Terbutaline 1 mM + Chitobiose 500 μg): 800 mg
- Weight loss of ex vivo instilled rat lung over 100 min ([1]; Terbutaline 1 mM alone, individual lungs): 805 mg and 1223 mg and 1425 mg and 1370 mg
- clearing alveolar fluid content ex vivo [1]: capable of clearing alveolar fluid content

Compound: CTPEGAEC (Biotin-CTPEGAEC; cysteine pairing not given here; listed as Mus musculus) [STip]
- activity in fluid clearance [1, 4]: equally active
- Weight loss of ex vivo instilled rat lung over 80 min ([1]; synthetic peptide 1000 μg/lung): 507 mg and 607 mg and 781 mg and 703 mg and 744 mg
- Weight loss of ex vivo instilled rat lung over 100 min ([1]; synthetic peptide 1000 μg/lung): 836 mg and 535 mg and 684 mg and 891 mg and 849 mg
- whole cell current / membrane conductance [2]: failed to induce a voltage-dependent current

From patent US7258861B2, “TNF-derived peptides for use in treating oedema” (Innogenetics N.V., priority 2001, dated 2007)
